The values below come from patent publication US20040082664A1, “Derivatives of hydroxyphenyl, a method for preparing thereof and their pharmaceutical composition” (priority 2002, published 2004).

The target in one assay is T1, GST-fused lck SH2 domain (Homo sapiens, UniProt P06239).
T1 construct: GST (Glutathione transferase)-fused lck SH2 domain
The assay can be described thus: Inhibition of in vitro binding of lck SH2 domain to its cognate pYEEI peptide (BIAcore 2000). As to conditions: IC50 class for inhibition of GST-lckSH2 binding to immobilized biotinylated […]pYEEIPI peptide; read-out: BOND DEGREE WITH SH2 OF 1ck. The essentials:
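Surface plasmon resonance: biotinylated pYEEIPI peptide immobilized on the sensor surface, GST-fused lck SH2 domain injected over it. Binding recorded as resonance units (1,000 RU = 1 ng/mm^2); inhibition by compounds seen as reduced RU.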

The next assay concerns skin allograft rejection. The assay can be described thus: Inhibition of skin allograft rejection (Balb/c tail skin grafted onto C57BL/6 mouse). In kind it is in vivo. As to conditions: 100 mg/kg/day into abdominal cavity from day of transplantation until complete rejection. The procedure: For the experiment, allogeneic Balb/c(H-2d) mouse-tail skin was grafted onto C57BL/6(H-2b) mouse. Generally 7-8 mice were assigned to each group. All the phenyl derivatives were dissolved in 100% ethanol, mixed with olive oil, and adjusted to the final concentration of ethanol therein less than 5%. […] Meanwhile, for the group of untreated mice, an olive oil-ethanol mixture was administered as a control. The grafted skin was monitored daily after the removal of the bandage on days 7-9. Rejection was defined as more than 80% necrosis of the graft epithelium.

The next assay relates to IL-2 promoter. The assay can be described thus: IL-2 promoter luciferase reporter assay in anti-CD3 activated Jurkat cells. The settings on record: Homo sapiens, TCR-induced (anti-CD3) IL-2 promoter luciferase, 2 h pre-incubation. Type of assay: cell-based. Summed up:
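Jurkat cells transiently transfected with an IL-2 promoter–luciferase plasmid; 24 h later pre-incubated 2 h with compound (1 uM-50 uM), then activated on plates coated with 5 ug/ml anti-CD3. Luciferase activity read by luminometer; IC50 taken as 50% inhibition of TCR-induced promoter activation.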
(In general: In a reporter assay the amount or activity of a reporter protein is the signal.)

In assay [1] the test system is collagen-induced rheumatoid arthritis. As to the kind of experiment: Inhibition of collagen-induced rheumatoid arthritis in DBA1/LacJ mice. Type of assay: in vivo, mouse. Further details: key: sum of 4 leg scores (0-4 each), max 16. As to conditions: 50 mg/kg/day i.p. daily; day 15 after treatment (day 36 after primary immunization); sum of scores of four legs, maximum 16; mean ± standard deviation. The essentials: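 DBA1/LacJ mice primed with collagen II, boosted at 2 weeks with 50 μg C II/IFA. From week 3, compounds at 50 mg/kg/day were given i.p. daily in 5% ethanol–olive oil for 15–20 days (6–8 mice/group). Arthritic index (four paws, maximum 16) was scored daily and reported as group mean ± SD.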

T1 sequence (P06239 127-224 limits assumed): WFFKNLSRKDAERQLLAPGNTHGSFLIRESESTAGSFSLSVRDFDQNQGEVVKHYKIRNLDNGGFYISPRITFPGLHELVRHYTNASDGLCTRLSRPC

In the case of `COC(=O)[C@@H](Cc1ccc(O)c(O)c1)OC(=O)/C=C/c1ccc(O)c(O)c1` [Example 54, (R)-3-(3,4-dihydroxy-phenyl)-acrylic acid 2-(3,4-dihydroxy-phenyl)-1-methoxycarbonyl ethyl ester], the figures for the IC50 at GST-fused lck SH2 domain and with IL-2 promoter were 10 to 25 µM and 4.5 µM, respectively. Further, in the assay on skin allograft rejection, the “Survival time of skin graft tissue (days ± variance)” value is 13 ± 0.9 days. In assay [1], this compound displayed an Arthritis index of 3.5 ± 1.1.
For `CCCOC(=O)[C@@H](Cc1ccc(O)c(O)c1)OC(=O)/C=C/c1ccc(O)c(O)c1` [Example 55, (R)-3-(3,4-Dihydroxy-phenyl)-acrylic acid 2-(3,4-dihydroxy-phenyl)-1-propoxycarbonyl ethyl ester] the same measures were 10 to 25 µM, 5.7 µM, 12.1 ± 0.8 days and 4.8 ± 0.8.
With `CC(C)(C)OC(=O)[C@@H](Cc1ccc(O)c(O)c1)OC(=O)/C=C/c1ccc(O)c(O)c1` [Example 56, (R)-3-(3,4-Dihydroxy-phenyl)-acrylic acid 2-(3,4-dihydroxy-phenyl)-1-tert-butoxycarbonyl ethyl ester], the IC50 at GST-fused lck SH2 domain was 25 to 50 µM; with IL-2 promoter, 6.2 µM. Besides, in the assay with skin allograft rejection, the “Survival time of skin graft tissue (days ± variance)” value was 12.9 ± 1.2 days. This compound gave an Arthritis index in assay [1] of 5.2 ± 0.5.
For `NC(=O)[C@@H](Cc1ccc(O)c(O)c1)OC(=O)/C=C/c1ccc(O)c(O)c1` [Example 57, (R)-3-(3,4-Dihydroxy-phenyl)-acrylic acid 2-(3,4-dihydroxy-phenyl)-1-carbamoyl ethyl ester] the same measures were 25 to 50 µM, 5.2 µM, 13.1 ± 0.7 days and 4.5 ± 1.2.
In the same order, the values of `CC(C)NC(=O)[C@@H](Cc1ccc(O)c(O)c1)OC(=O)/C=C/c1ccc(O)c(O)c1` [Example 58, (R)-3-(3,4-Dihydroxy-phenyl)-acrylic acid 2-(3,4-dihydroxy-phenyl)-1-isopropylcarbamoyl ethyl ester] are 25 to 50 µM, 5.4 µM, 12.5 ± 1.3 days and 4.8 ± 0.7.
